# What was measured:
# [1] = biological target: T1, p53/hDM2 interaction (FITC–p53_15–31 / hDM2(17-126) L33E) (Homo sapiens, UniProt Q00987, L33E); test: Fluorescence anisotropy (FA) competition assay against p53/hDM2; assay type: binding; settings: for IC50: 50 nM FITC–p53(15-31), 150 nM hDM2(17-126) L33E, 40 mM phosphate buffer pH 7.5, 200 mM NaCl, 0.02 mg mL−1 BSA, 5 % DMSO, read after 1 h at room temperature, triplicate, fit ± error; for Displacement of FITC–p53_15–31 from hDM2 (in words): same conditions, lower asymptote of the competition curve not achieved at higher concentrations, IC50 ND
# T1 construct: hDM2(17-126)
# [2] = biological target: BODIPY–BAK/Bcl‐xL protein–protein interaction (Homo sapiens, UniProt Q07817); test: FA competition assay, BODIPY–BAK/Bcl-xL; assay type: binding; settings: 50 nM BODIPY-Bak, 150 nM Bcl-xL, top concentration 222 μM, 1 h room temperature, triplicate
# [3] = biological target: T2, FITC–NOXA B/Mcl‐1 protein–protein interaction (Homo sapiens, UniProt Q07820); test: FA competition assay, FITC–NOXA B/Mcl-1; assay type: binding; settings: 50 nM FITC-NOXA B(68-87), 150 nM Mcl-1(172-327), top concentration 222 μM, 1 h room temperature, triplicate
# T2 construct: Mcl-1(172-327)
# α‐chymotrypsin (α‐CT) = test: Proteolytic stability with α-chymotrypsin (HPLC); assay type: in vitro ADME; settings: α-chymotrypsin type II from bovine pancreas, 1:10000 enzyme/substrate; peptide 200 μM stock in PBS pH 7.50, 2% DMSO; followed by analytical HPLC; fold versus p53_15–31
# From the text: The proteolytic stability of α/β/γ‐peptides 1–8 was investigated using α‐chymotrypsin (α‐CT) as a representative protease, since this enzyme selectively hydrolyses the amide bond on the C‐terminal side of hydrophobic residues such as Leu, Trp, and Phe, all of which are present in the α/β/γ‐peptide sequences. The p53_15–31 peptide was also studied for comparison (see the Supporting Information). […] For the latter four peptides, the proteolytic activity corresponded to methyl ester hydrolysis of the C‐terminal Leu residue; in all eight cases, therefore, the hexapeptide core remained largely intact for the duration of the experiments.
# IV. Proteolysis studies of peptides 1-8
# α-Chymotrypsin Type II from bovine pancreas (lyophilized powder, MW = 25 kDa, ≥ 40 units/mg protein) was purchased from Sigma-Aldrich and used without further purification.
# α/β/γ-Peptides and p53(15-31) peptide (200 µM stock in PBS buffer pH 7.50, 2% DMSO) were treated with α-Chymotrypsin Type II from bovine pancreas (0.02 µM stock solutions in PBS buffer pH 7.50) in a 1:10000 enzyme/substrate ratio. The degradation was followed with analytical HPLC (Ascentis® Express Peptide Column, injection volume: 20 µL, acetonitrile/water (0.1% TFA) 5-95% gradient) and the data was analysed to extract kinetic values.
# 1. HPLC traces of the positive control (native p53) in presence of α-Chymotrypsin
# (1 picture or pasted object on this page, not shown here)
SMILES,IC50 [1] [µM],Inhibitory activity on BODIPY–BAK/Bcl‐xL interaction [2],Inhibitory activity on FITC–NOXA B/Mcl‐1 interaction [3],Resistance to α‐CT relative to native p53_15–31 (α‐chymotrypsin (α‐CT)) [fold],Displacement of FITC–p53_15–31 from hDM2 (in words) [1]
COC(=O)CC[C@H](CC(C)C)NC(=O)[C@H]1CC[C@@H]1NC(=O)CC[C@H](Cc1c[nH]c2ccccc12)NC(=O)[C@H]1CC[C@@H]1NC(=O)CC[C@@H](C)NC(=O)[C@H](Cc1ccccc1)NC(=O)OC(C)(C)C [Peptide 2],15 ± 2,no inhibitory activity,no inhibitory activity,,
COC(=O)CC[C@H](CC(C)C)NC(=O)[C@H]1CC[C@@H]1NC(=O)CC[C@H](Cc1c[nH]c2ccccc12)NC(=O)[C@H]1CC[C@@H]1NC(=O)CC[C@@H](C)NC(=O)[C@H](Cc1ccccc1)NC(C)=O [Peptide 6],,,,≥ 32,effectively displaced FITC–p53_15–31 at micromolar concentrations
COC(=O)CC[C@H](CC(C)C)NC(=O)[C@H]1CC[C@@H]1NC(=O)CC[C@H](Cc1ccccc1)NC(=O)[C@H]1CC[C@@H]1NC(=O)CC[C@@H](C)NC(=O)[C@H](Cc1ccccc1)NC(C)=O [Peptide 8],,,,,effectively displaced FITC–p53_15–31 at micromolar concentrations
COC(=O)[C@H](CC(C)C)NC(=O)[C@H]1CC[C@@H]1NC(=O)CC[C@H](Cc1ccccc1)NC(=O)[C@H]1CC[C@@H]1NC(=O)CC[C@@H](C)NC(=O)[C@H](Cc1ccccc1)NC(=O)OC(C)(C)C [Peptide 3],> 100,,,≥ 10,
COC(=O)[C@H](CC(C)C)NC(=O)[C@H]1CC[C@@H]1NC(=O)CC[C@H](Cc1c[nH]c2ccccc12)NC(=O)[C@H]1CC[C@@H]1NC(=O)CC[C@@H](C)NC(=O)[C@H](Cc1ccccc1)NC(=O)OC(C)(C)C [Peptide 1],57 ± 22,no inhibitory activity,no inhibitory activity,≥ 10,
COC(=O)CC[C@H](CC(C)C)NC(=O)[C@H]1CC[C@@H]1NC(=O)CC[C@H](Cc1ccccc1)NC(=O)[C@H]1CC[C@@H]1NC(=O)CC[C@@H](C)NC(=O)[C@H](Cc1ccccc1)NC(=O)OC(C)(C)C [Peptide 4],> 100,,,≥ 32,
COC(=O)[C@H](CC(C)C)NC(=O)[C@H]1CC[C@@H]1NC(=O)CC[C@H](Cc1c[nH]c2ccccc12)NC(=O)[C@H]1CC[C@@H]1NC(=O)CC[C@@H](C)NC(=O)[C@H](Cc1ccccc1)NC(C)=O [Peptide 5],> 100,,,≥ 10,
COC(=O)[C@H](CC(C)C)NC(=O)[C@H]1CC[C@@H]1NC(=O)CC[C@H](Cc1ccccc1)NC(=O)[C@H]1CC[C@@H]1NC(=O)CC[C@@H](C)NC(=O)[C@H](Cc1ccccc1)NC(C)=O [Peptide 7],> 100,,,≥ 10,

# Source: paper PMC5014220, “An α‐Helix‐Mimicking 12,13‐Helix: Designed α/β/γ‐Foldamers as Selective Inhibitors of Protein–Protein Interactions” (Angewandte Chemie (International Ed. in English), 2016)
